Assay results from patent publication US20230141600A1, “IMIDAZOPYRAZINE DERIVATIVES” (priority 2020, published 2023).
Counter-ions that a name gives are not always drawn. Like-named read-outs stand apart in the source and are kept apart here.

Tested on: Acinetobacter baumannii ATCC17961
Test: 90% growth inhibitory concentration (IC90) determination, antimicrobial susceptibility testing
Type: cell-based
Conditions: Acinetobacter baumannii, ATCC17961, 16 h, read-out: ATCC 17961 IC90
In short: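 Twofold serial dilutions (e.g. 50 to 0.097 μM final) in Iso-Sensitest broth, inoculated at ~5×10^5 CFU/ml and incubated at 35±2 °C for 16 h with OD600 read every minute. IC90 taken from growth inhibition during the logarithmic phase.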

[1] = 90% growth inhibition, Iso-Sensitest broth, OD 600 nm over 16 h, 35±2° C.

Row | IC90 [1] [nM] | SMILES | IC90 [nM]
1 | 467 | CCc1cc(Nc2nccn3c(-c4cn(CC#N)nc4C(F)(F)F)cnc23)ccc1C(=O)NCCOCC[N+]1(CC#N)CCOCC1 [Example 78, 4-(Cyanomethyl)-4-(2-(2-(4-((3-(1-(cyanomethyl)-3-(trifluoromethyl)-1H-pyrazol-4-yl)imidazo[1,2-a]pyrazin-8-yl)amino)-2-ethylbenzamido)ethoxy)ethyl)morpholin-4-ium Formate] | 
2 | 725 | CCc1cc(Nc2nccn3c(-c4ccc(OC(F)F)c(F)c4F)cnc23)ccc1C(=O)N1CC2(C1)CN(C(=O)C1CC[N+](C)(CC3CCNC3)CC1)C2 (stereo not shown) [Example 95, [4-[[3-[4-(difluoromethoxy)-2,3-difluoro-phenyl]imidazo[1,2-a]pyrazin-8-yl]amino]-2-ethyl-phenyl]-[2-[1-methyl-1-(pyrrolidin-3-ylmethyl)piperidin-1-ium-4-carbonyl]-2,6-diazaspiro[3.3]heptan-6-yl]methanone bis(2,2,2-trifluoroacetate)] | 
3 | 479 | CCc1cc(Nc2nccn3c(-c4ccc(OC)c(F)c4F)cnc23)ccc1C(=O)NCC1CC[N+](C)(CC2CC[N+](C)(C)C2)CC1 (stereo not shown) [Example 135, 4-[[3-(2,3-Difluoro-4-methoxy-phenyl)imidazo[1,2-a]pyrazin-8-yl]amino]-N-[[1-[(1,1-dimethylpyrrolidin-1-ium-3-yl)methyl]-1-methyl-piperidin-1-ium-4-yl]methyl]-2-ethyl-benzamide Diformate] | 
4 | 168 | COc1ccc(-c2cnc3c(Nc4ccc(C(=O)NC5CCCN(C(=O)C[N+](C)(C)C)C5)c(C)c4)nccn23)c(F)c1F (stereo not shown) [Example 68, 2-(3-(4-((3-(2,3-Difluoro-4-methoxyphenyl)imidazo[1,2-a]pyrazin-8-yl)amino)-2-methylbenzamido)piperidin-1-yl)-N,N,N-trimethyl-2-oxoethan-1-aminium Chloride] | 
5 | 4820 | CCc1cc(Nc2nccn3c(-c4ccc(OC)c(F)c4F)cnc23)ccc1C(=O)NCCC[N+](C)(CC1CNC1)CC1CNC1 [Example 139, Bis(azetidin-3-ylmethyl)-[3-[[4-[[3-(2,3-difluoro-4-methoxy-phenyl)imidazo[1,2-a]pyrazin-8-yl]amino]-2-ethyl-benzoyl]amino]propyl]-methyl-ammonium bis(2,2,2-trifluoroacetate)] | 
6 | 114 | CCc1cc(Nc2nccn3c(-c4ccc(OC)c(F)c4F)cnc23)ccc1C(=O)NCCCNC(=O)CC1CC[N+](C)(CC2CNC2)CC1 (stereo not shown) [Example 131, N-[3-[[2-[1-(Azetidin-3-ylmethyl)-1-methyl-piperidin-1-ium-4-yl]acetyl]amino]propyl]-4-[[3-(2,3-difluoro-4-methoxy-phenyl)imidazo[1,2-a]pyrazin-8-yl]amino]-2-ethyl-benzamide bis(2,2,2-trifluoroacetate)] | 
7 | 1160 | C[N+](C)(C)CC(=O)NCCCNC(=O)c1ccc(Nc2nccn3c(-c4c[nH]nc4C(F)(F)F)cnc23)cc1Cl [Example 7, [2-[3-[[2-Chloro-4-[[3-[3-(trifluoromethyl)-1H-pyrazol-4-yl]imidazo[1,2-a]pyrazin-8-yl]amino]benzoyl]amino]propylamino]-2-oxo-ethyl]-trimethyl-ammonium Formate] | 
8 | 157 | C[N+]1(CC2CCNC2)CCC(C(=O)NCCCNC(=O)c2ccc(Nc3nccn4c(-c5ccc(OC(F)F)c(F)c5F)cnc34)cc2Cl)CC1 (stereo not shown) [Example 117, N-[3-[[2-Chloro-4-[[3-[4-(difluoromethoxy)-2,3-difluoro-phenyl]imidazo[1,2-a]pyrazin-8-yl]amino]benzoyl]amino]propyl]-1-methyl-1-(pyrrolidin-3-ylmethyl)piperidin-1-ium-4-carboxamide Formate] | 
9 | 144 | CCc1cc(Nc2nccn3c(-c4ccc(OC)c(F)c4F)cnc23)ccc1C(=O)NCCCCC[N+](C)(CCCCN)CC(=O)O (stereo not shown) [Example 105, 4-aminobutyl-(carboxymethyl)-[5-[[4-[[3-(2,3-difluoro-4-methoxy-phenyl)imidazo[1,2-a]pyrazin-8-yl]amino]-2-ethyl-benzoyl]amino]pentyl]-methyl-ammonium Formate] | 
10 | 67.7 | CCc1cc(Nc2nccn3c(-c4ccc(OC)c(F)c4F)cnc23)ccc1C(=O)NC1CN(C(=O)C[N+](C)(C)CC(N)=O)C1 [Example 71, 2-Amino-N-(2-(3-(4-((3-(2,3-difluoro-4-methoxyphenyl)imidazo[1,2-a]pyrazin-8-yl)amino)-2-ethylbenzamido)azetidin-1-yl)-2-oxoethyl)-N,N-dimethyl-2-oxoethan-1-aminium Formate] | 
11 | 166 | COc1ccc(-c2cnc3c(Nc4ccc(C(=O)NC5CCN(C(=O)C[N+](C)(C)C)CC5)c(C)c4)nccn23)c(F)c1F [Example 60, 2-(4-(4-((3-(2,3-Difluoro-4-methoxyphenyl)imidazo[1,2-a]pyrazin-8-yl)amino)-2-methylbenzamido)piperidin-1-yl)-N,N,N-trimethyl-2-oxoethan-1-aminium Chloride] | 
12 | 434 | CCc1cc(Nc2nccn3c(-c4ccc(OC)c(F)c4F)cnc23)ccc1C(=O)NCCCCC[N+](C)(CCCC(=O)O)CC1CNC1 (stereo not shown) [Example 107, Azetidin-3-ylmethyl-(3-carboxypropyl)-[5-[[4-[[3-(2,3-difluoro-4-methoxy-phenyl)imidazo[1,2-a]pyrazin-8-yl]amino]-2-ethyl-benzoyl]amino]pentyl]-methyl-ammonium 2,2,2-trifluoroacetate] | 
13 | 107 | CCc1cc(Nc2nccn3c(-c4ccc(OC(F)F)c(F)c4F)cnc23)ccc1C(=O)N1CCN(C(=O)C2CC[N+](C)(CC3CNC3)CC2)CC1 (stereo not shown) [Example 81, 1-(Azetidin-3-ylmethyl)-4-(4-(4-((3-(4-(difluoromethoxy)-2,3-difluorophenyl)imidazo[1,2-a]pyrazin-8-yl)amino)-2-ethylbenzoyl)piperazine-1-carbonyl)-1-methylpiperidin-1-ium 2,2,2-trifluoroacetate] | 
14 | 41 | COc1ccc(-c2cnc3c(Nc4ccc(C(=O)N[C@H]5C[C@@H](NC(=O)C[N+](C)(C)C)C5)c(Cl)c4)nccn23)c(F)c1F [Example 59, [2-[[3-[[2-Chloro-4-[[3-(2,3-difluoro-4-methoxy-phenyl)imidazo[1,2-a]pyrazin-8-yl]amino]benzoyl]amino]cyclobutyl]amino]-2-oxo-ethyl]-trimethyl-ammonium formate] | 
15 | 600 | CCc1cc(Nc2nccn3c(-c4cn(CC(F)F)nc4C(F)(F)F)cnc23)ccc1C(=O)NCCCCC[N+](C)(CC(=O)O)CC1CNC1 (stereo not shown) [Example 8, azetidin-3-ylmethyl-(carboxymethyl)-[5-[[4-[[3-[1-(2,2-difluoroethyl)-3-(trifluoromethyl)pyrazol-4-yl]imidazo[1,2-a]pyrazin-8-yl]amino]-2-ethyl-benzoyl]amino]pentyl]-methyl-ammonium Formate] | 
16 | 1580 | C[N+](C)(C)CC(=O)NCCNC(=O)c1ccc(Nc2nccn3c(-c4c[nH]nc4C(F)(F)F)cnc23)cc1Cl [Example 58, [2-[2-[[2-Chloro-4-[[3-[3-(trifluoromethyl)-1H-pyrazol-4-yl]imidazo[1,2-a]pyrazin-8-yl]amino]benzoyl]amino]ethylamino]-2-oxo-ethyl]-trimethyl-ammonium formate] | 
17 |  | CCc1cc(Nc2nccn3c(-c4ccc(OC)c(F)c4F)cnc23)ccc1C(=O)NCC1CCN(C(=O)C2CC[N+](C)(CC3CNC3)CC2)CC1 (stereo not shown) [Example 133, N-[[1-[1-(Azetidin-3-ylmethyl)-1-methyl-piperidin-1-ium-4-carbonyl]-4-piperidyl]methyl]-4-[[3-(2,3-difluoro-4-methoxy-phenyl)imidazo[1,2-a]pyrazin-8-yl]amino]-2-ethyl-benzamide bis(2,2,2-trifluoroacetate)] | 334
18 | 634 | CCc1cc(Nc2nccn3c(-c4ccc(OC(F)F)c(F)c4F)cnc23)ccc1C(=O)NCCCCC[N+](C)(CC1CNC1)CC1CNC1 [Example 89, Bis(azetidin-3-ylmethyl)-[5-[[4-[[3-[4-(difluoromethoxy)-2,3-difluoro-phenyl]imidazo[1,2-a]pyrazin-8-yl]amino]-2-ethyl-benzoyl]amino]pentyl]-methyl-ammonium bis(2,2,2-trifluoroacetate)] | 
19 |  | CCc1cc(Nc2nccn3c(-c4ccc(OC)c(F)c4F)cnc23)ccc1C(=O)NCC1CC[N+](C)(Cc2cccnc2)CC1 (stereo not shown) [Example 140, 4-[[3-(2,3-difluoro-4-methoxy-phenyl)imidazo[1,2-a]pyrazin-8-yl]amino]-2-ethyl-N-[[1-methyl-1-(3-pyridylmethyl)piperidin-1-ium-4-yl]methyl]benzamide; 2,2,2-trifluoroacetate] | 115
20 | 682 | CCc1cc(Nc2nccn3c(-c4ccc(OC)c(F)c4F)cnc23)ccc1C(=O)NC[C@H](NC(=O)C1CC[N+](C)(CC2CNC2)CC1)C(=O)OC (mixture of isomers) [Example 120, Methyl (2S)-2-[[1-(azetidin-3-ylmethyl)-1-methyl-piperidin-1-ium-4-carbonyl]amino]-3-[[4-[[3-(2,3-difluoro-4-methoxy-phenyl)imidazo[1,2-a]pyrazin-8-yl]amino]-2-ethyl-benzoyl]amino]propanoate formate 2,2,2-trifluoroacetate (Mixed Salt)] | 
21 | 2560 | CCc1cc(Nc2nccn3c(-c4ccc(OC)c(F)c4F)cnc23)ccc1C(=O)NCCCCC[N+](C)(CC(=O)O)CC(=O)O [Example 112, bis(carboxymethyl)-[5-[[4-[[3-(2,3-difluoro-4-methoxy-phenyl)imidazo[1,2-a]pyrazin-8-yl]amino]-2-ethyl-benzoyl]amino]pentyl]-methyl-ammonium 2,2,2-trifluoroacetate] | 
22 | 4140 | CCc1cc(Nc2nccn3c(-c4c[nH]nc4C(F)(F)F)cnc23)ccc1C(=O)NCC1CC[N+](C)(CC2CNC2)C1 (stereo not shown) [Example 138, N-[[1-(Azetidin-3-ylmethyl)-1-methyl-pyrrolidin-1-ium-3-yl]methyl]-2-ethyl-4-[[3-[3-(trifluoromethyl)-1H-pyrazol-4-yl]imidazo[1,2-a]pyrazin-8-yl]amino]benzamide bis(2,2,2-trifluoroacetate)] | 
